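Following 48 hours of exposure in 96-well plates, responses at five concentrations were used to interpolate endpoints linearly. GI50 is the concentration that inhibits growth by half.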 Active and inactive are the calls of the source. No stated cut-off is given here; in the data, active = GI50 up to about 1.1 µM and inactive = higher.
Assays:
Assay in all cases: NCI tumour cell line growth inhibition, 48 h
[1] = tested on: 786-0
[2] = tested on: ACHN
[3] = tested on: BT-549
[4] = tested on: HOP-62
[5] = tested on: HT-29
[6] = tested on: K562
[7] = tested on: NCI-H23
[8] = tested on: OVCAR-4
[9] = tested on: PC-3
[10] = tested on: SF-268
[11] = tested on: SF-539
[12] = tested on: SK-MEL-28
[13] = tested on: SN12C
[14] = tested on: SNB-19
[15] = tested on: SNB-75
[16] = tested on: T47D

Measured: GI50

COc1ccc(-c2c3c(n(C4OC(COC(C)=O)C(OC(C)=O)C(OC(C)=O)C4OC(C)=O)c(=S)c2C#N)CCC3)cc1 (configuration not stated)
inactive: [1] > 100 µM | [2] > 100 µM | [3] 96.4 µM | [4] > 100 µM | [5] > 100 µM | [6] > 100 µM | [7] > 100 µM | [8] > 100 µM | [9] > 100 µM | [10] > 100 µM | [11] > 100 µM | [12] > 100 µM | [13] 71.4 µM | [14] > 100 µM | [15] > 100 µM

N#CCc1nc(C#N)c(N)o1
inactive: [1] > 100 µM | [2] > 100 µM | [3] > 100 µM | [4] > 100 µM | [5] > 100 µM | [7] > 100 µM | [8] > 100 µM | [9] > 100 µM | [10] > 100 µM | [11] > 100 µM | [12] > 100 µM | [13] > 100 µM | [16] > 100 µM

COc1ccccc1N1C(=O)/C(=C\c2cccc(Oc3ccccc3)c2)S(=O)(=O)C1c1ccccc1 (configuration not stated)
inactive: [1] 49.4 µM | [2] > 100 µM | [3] 26.6 µM | [4] > 100 µM | [6] 17.3 µM | [7] 19 µM | [8] 9.79 µM | [9] 41.4 µM | [12] 71.1 µM | [13] > 100 µM | [14] 50 µM | [16] 22.3 µM

Cc1ccc(/N=C2\SC(=S)N(CCC[N+](C)(C)C)\C2=N/c2ccc(C)cc2)cc1
inactive: [1] 14.1 µM | [2] 13.2 µM | [3] 4.22 µM | [4] 23.7 µM | [5] 14.8 µM | [6] 7.13 µM | [7] 14.5 µM | [9] 13.7 µM | [12] 7.64 µM | [13] 11.2 µM | [14] 8.24 µM | [15] 2.94 µM | [16] 2.29 µM

COC1OC(C(=O)O)C2OC(C)(C)OC12 (configuration not stated)
inactive: [1] > 100 µM | [2] > 100 µM | [3] > 100 µM | [4] > 100 µM | [5] > 100 µM | [6] > 100 µM | [7] > 100 µM | [8] > 100 µM | [9] > 100 µM | [10] > 100 µM | [11] > 100 µM | [12] > 100 µM | [13] > 100 µM | [14] > 100 µM | [15] > 100 µM

CC1=Nc2c(C#N)ncn2N=C(C)C1
inactive: [1] > 100 µM | [2] > 100 µM | [3] > 100 µM | [4] > 100 µM | [5] > 100 µM | [6] > 100 µM | [7] > 100 µM | [8] > 100 µM | [9] > 100 µM | [10] > 100 µM | [11] > 100 µM | [12] > 100 µM | [13] > 100 µM | [15] > 100 µM
